# Measured values reported in patent US20220125760A1, “USE OF USP7 INHIBITORS FOR THE TREATMENT OF ACUTE MYELOID LEUKEMIA (AML)” (INSERM (Institut National de la Santé et de la Recherche …, priority 2019, published 2022).
# Legend:
# [1] = system: OCI-AML3 cells engrafted in NSG mice; assay: OCI-AML3 xenograft in NSG mice, overall survival; conditions: NSG mice engrafted with OCI-AML3, 30 mg/kg/day IP for 5 days, vs vehicle, p=0.0001
# Description: For statistical analysis, Mantel-Cox test was used. ***P≤0.001.
# NOD/LtSz-SCID/IL-2Ry chain null (NSG) mice were bred at the UMS006 in Toulouse (France) using breeders obtained from Charles River. […] NSG mice were treated by i.p. injection of busulfan (20 mg/kg) on the day before the experiment. Mice were engrafted by injection of 2.10^6 OCI-AML3 cells into the tail vein. […] Mice were treated by daily intraperitoneal (IP) injection with AraC, P22077 or vehicle for 5 days. Overall mouse survival was established under these conditions.
# OCI-AML3 resistant cells were injected into the tail vein of immunodeficient NSG mice to establish AML disease.
# [2] = system: HL-60 cells; assay: Cell death of HL-60 cells, combination with cytarabine, annexinV flow cytometry; type: cell-based, Human; conditions: HL60 cells, 24 h
# Description: (§1) B: HL-60 cells were treated as indicated for 24 h. […] Statistical analysis was performed by unpaired t-test (n=4). *P≤0.05 and **P≤0.01. […] Colony formation was assessed after 7 days and represented as the ratio of the number of clones between untreated and treated conditions. For statistical analyses, unpaired Wilcoxon test was used. *P≤0.05, and ns=not significant.
# (§2) To explore the possibility that USP7 by modulating CHK1 stability USP7 participates in the chemoresistance of leukemic cells, we examined the capacity of USP7 inhibition to sensitize HL60 and OCI-AML3 cells to cytarabine treatment. […] We then quantified the capacity of primary AML cells to form colonies in methylcellulose-based semi-solid medium, when exposed to clinical relevant concentrations (10 nM) of cytarabine combined with the P22077 inhibitor (FIG. 5D-5E).
# [3] = system: AML primary samples; assay: Cell viability of AML primary samples, annexinV/cell viability staining by flow cytometry; conditions: three primary AML samples, 10 μM P22077 for 24 h
# [4] = system: OCI-AML3 cells; assay: Cell death of OCI-AML3 cells, combination with cytarabine, annexinV flow cytometry; type: cell-based, Human; conditions: P22077 10 μM + AraC 1 μM, 24 h
# Description: as §1, §2
# [5] = system: primary AML cells; assay: Colony formation of primary AML blast cells in methylcellulose-based semi-solid medium; type: cell-based, Human; conditions: for colony formation, effect on cytarabine sensitivity: 10 nM cytarabine + 5 μM P22077, 7 days
# Description: as §1, §2
# [6] = system: CHK1 protein levels in HL-60 cells; assay: CHK1 protein level by western blot in HL-60 cells; type: cell-based, Human; conditions: HL-60 cells (p53 null), P22077 at 10, visible from 8 h to 24 h of treatment
# Description: (§3) FIG. 2: USP7 inhibition decreases CHK1 protein level. […] Actin was used as loading control. Normalization was performed using CTL siRNA condition as reference. […] B: HL-60 cells were treated with USP7 inhibitor (P22077) at 10 and harvested at the indicated times, followed by western blotting for CHK1. […] The amount of CHK1 at t=0 h was set to 1. […] C: OCI-AML3 cells were treated with USP7 inhibitor (P22077) at 10 μM and harvested at the indicated times, followed by western blotting for CHK1 protein. Graph represent the quantification of CHK1 protein levels normalized to actin loading control from 3 independent experiments. Statistical analyses were performed as in B.
# (§4) We then investigated whether USP7 could regulate CHK1 levels in leukemic cells. […] We then used P22077, an inhibitor of USP7 catalytic activity^34,35, to further monitor the impact of USP7 inhibition on CHK1 levels. […] We then asked whether p53 status could affect this response and reproduced these experiments on two AML cell lines, OCI-AML3 and HEL, which express wild-type p53 and high CHK1 protein levels (FIG. 1A and data not shown). […] Using an immunofluorescence approach, we also validated that approximately 50% of CHK1 protein signal disappears after 24 hours of USP7 inhibition (data not shown).
# [7] = system: Peripheral Blood Mononuclear Cells (PBMC); assay: Cell viability of PBMC, annexinV/cell viability staining by flow cytometry; conditions: normal PBMC (n=3), 10 μM P22077 for 24 h
# [8] = system: CHK1 half-life in HL60 cells; assay: CHK1 half-life with cycloheximide in HL60 cells; type: cell-based, Human
# Description: To complete, experiments were performed to test whether the half-life of CHK1 is regulated by USP7 in leukemic cells. To this end, HL60 cells were treated with P22077 and the half-life of CHK1 was measured in the presence of 50 μg/mL cycloheximide (CHX) to inhibit protein biogenesis.
# [9] = system: CHK1 protein levels in HEL cells; assay: CHK1 and p53 protein levels in HEL cells; type: cell-based, Human; conditions: data not shown
# Text: as §4
# [10] = system: CHK1 ubiquitination in HL60 cells; assay: CHK1 immunoprecipitation and ubiquitin immunoblot in HL60 cells with MG132; type: cell-based, Human; conditions: in presence of proteasome inhibitor MG132, vs control condition
# Description: To confirm that USP7 can regulates CHK1 protein level, endogenous CHK1 was immunoprecipitated from HL60 cells treated or not with P22077, in presence of the proteasome inhibitor MG132 to stabilize ubiquitinated forms of the protein. Immunoblotting of these fractions was performed and probed with an antibody against ubiquitin.
# [11] = system: CHK1 protein signal; assay: Immunofluorescence of CHK1 protein signal; type: cell-based; conditions: after 24 hours of USP7 inhibition, data not shown
# Text: as §4
# We then investigated whether USP7 can regulate CHK1 protein level or its subcellular localization in leukemic cells. […] Using immunofluorescence, we also validated that approximately 50% of the CHK1 protein signal disappears after 24 hours of USP7 inhibition, without any changes in CHK1 subcellular localization (data not shown).
# [12] = system: CHK1 protein level in OCI-AML3 cell line; assay: CHK1 protein level by western blot in OCI-AML3 cells; type: cell-based, Human; conditions: OCI-AML3 cells (wild-type p53), P22077 10 μM
# Description: as §3
# We then investigated whether USP7 could regulate CHK1 levels in leukemic cells. […] . We then asked whether p53 status could affect this response and reproduced these experiments on two AML cell lines, OCI-AML3 and HEL, which express wild-type p53 and high CHK1 protein levels (FIG. 1A and data not shown). […] . Using an immunofluorescence approach, we also validated that approximately 50% of CHK1 protein signal disappears after 24 hours of USP7 inhibition (data not shown).
# [13] = target: T1, CHK1 and USP7 (Homo sapiens, UniProt Q93009); assay: Proximity Ligation Assay (PLA) of CHK1 and USP7 in HL-60 cells; type: cell-based; conditions: HL60 cells, drug treatment, untreated (NT) 1.07+/−0.07
# T1 construct: endogenous in cells; host or cells: HL-60 cells
# Description: as §1
# T1 sequence (Q93009 whole entry): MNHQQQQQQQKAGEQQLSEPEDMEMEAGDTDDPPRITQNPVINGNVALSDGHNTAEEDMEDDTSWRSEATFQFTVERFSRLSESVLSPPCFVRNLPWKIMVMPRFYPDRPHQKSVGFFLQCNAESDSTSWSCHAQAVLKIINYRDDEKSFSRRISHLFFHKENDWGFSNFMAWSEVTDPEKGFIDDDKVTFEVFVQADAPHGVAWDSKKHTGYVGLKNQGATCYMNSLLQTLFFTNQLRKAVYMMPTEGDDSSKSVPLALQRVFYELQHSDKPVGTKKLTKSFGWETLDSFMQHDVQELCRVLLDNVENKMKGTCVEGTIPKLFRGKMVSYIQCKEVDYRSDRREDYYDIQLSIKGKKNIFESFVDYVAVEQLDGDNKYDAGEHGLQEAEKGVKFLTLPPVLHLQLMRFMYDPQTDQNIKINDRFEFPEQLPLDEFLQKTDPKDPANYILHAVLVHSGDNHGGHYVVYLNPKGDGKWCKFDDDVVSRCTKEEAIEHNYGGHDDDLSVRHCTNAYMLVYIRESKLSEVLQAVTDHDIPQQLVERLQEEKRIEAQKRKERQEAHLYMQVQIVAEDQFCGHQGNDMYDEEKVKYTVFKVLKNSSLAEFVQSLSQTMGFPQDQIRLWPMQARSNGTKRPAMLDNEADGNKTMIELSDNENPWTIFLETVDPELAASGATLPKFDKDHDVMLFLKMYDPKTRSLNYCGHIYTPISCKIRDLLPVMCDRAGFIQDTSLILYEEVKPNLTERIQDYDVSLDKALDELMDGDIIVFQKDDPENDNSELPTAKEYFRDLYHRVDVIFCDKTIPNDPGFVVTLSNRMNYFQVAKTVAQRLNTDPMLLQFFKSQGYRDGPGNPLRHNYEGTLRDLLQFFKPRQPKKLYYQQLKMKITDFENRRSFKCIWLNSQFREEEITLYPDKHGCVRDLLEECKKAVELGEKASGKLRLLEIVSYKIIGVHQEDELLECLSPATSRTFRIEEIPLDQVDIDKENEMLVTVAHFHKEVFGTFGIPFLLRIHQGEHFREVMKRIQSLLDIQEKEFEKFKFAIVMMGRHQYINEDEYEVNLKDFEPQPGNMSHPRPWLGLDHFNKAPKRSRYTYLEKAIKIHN
Structure (SMILES),overall mouse survival [1],cell death in combination with cytarabine [2],cell viability [3],cell death in combination with cytarabine [4],"colony formation, effect on cytarabine sensitivity ([5]; high CHK1 primary AML cells (n=6))","colony formation, effect on cytarabine sensitivity ([5]; low CHK1 primary AML cells (n=3))",CHK1 protein levels [6],cell viability [7],"half-life of CHK1 protein ([8]; 50 μg/mL cycloheximide, after 6 hours of P22077 treatment)","CHEK1 mRNA expression ([8]; P22077 treatment, data not shown)",CHK1 protein levels ([9]; HEL cells (wild-type p53)),p53 protein levels ([9]; HEL cells),CHK1 ubiquitination [10],CHK1 protein signal that disappears (immunofluorescence) [11],CHK1 protein level [12],"colony formation, resistance of high CHK1 cells compared to low CHK1 cells ([5]; 10 nM cytarabine alone, 7 days)","PLA foci per cell, co-staining of CHK1 and USP7 (mean +/- s.e.m.) [13]","PLA foci per cell, co-staining of CHK1 and USP7 (mean +/- s.e.m.) ([13]; listed as AraC)"
"CC(=O)c1cc([N+](=O)[O-])c(Sc2ccc(F)cc2F)s1 [P22077, 1-[5-[(2,4-Difluorophenyl)thio]-4-nitro-2-thienyl]-ethanone]",significantly improved overall mouse survival,synergistically enhances cell death induced by cytarabine,significantly reduced cell viability,synergistically enhances cell death induced by cytarabine,potentiated the effects of cytarabine,did not modify the sensitivity to cytarabine,significant decrease of CHK1 protein levels,largely unaffected,significantly shortened the half-life of CHK1 protein,without affecting CHEK1 mRNA expression,similarly decreased CHK1 protein levels,without significant impact on p53 protein levels,more abundantly ubiquitinated,approximately 50%,reduced CHK1 protein level,–,–,–
Nc1ccn([C@@H]2O[C@H](CO)[C@@H](O)[C@@H]2O)c(=O)n1 [cytarabine],–,–,–,–,–,–,–,–,–,–,–,–,–,–,–,significantly more resistant to cytarabine,significant proximity between the two proteins,3.31+/−0.21 foci/cell
